Experiment: Measurement of solubility in water
Type: physicochemical
Conditions: 200 g/L in 15° C. water

proportion of the complex compound precipitated | Substance | proportion of the complex compound dissolved | time for dissolution (100% dissolved)
90% | iron-citrate complex compound [Comparative Example 1] | 10% | 
 | iron-citrate complex compound [Example 1] | 100% | ≤ 5 min

Source: patent publication US20240034744A1, “COMPLEX COMPOUND OF COMPRISING THE CITRATE AND IRON ION AND THE FOOD COMPOSITION COMPRISING THE SAME” (priority 2022, published 2024)
